Experimental data: paper PMC9645390, “Amphiphilic stilbene derivatives attenuate the neurotoxicity of soluble Aβ42 oligomers by controlling their interactions with cell membranes” (Chemical Science, 2022)

Legend:
[1] = system: Aβ fibrils–SH-SY5Y cell membrane interactions; assay: Confocal imaging of Aβ fibrils binding to SH-SY5Y cell membranes; type: cell-based, human; conditions: 5 µM fibrils + 5 µM compound, 24 h
Excerpt: Encouraged by the ability of the developed amphiphilic compounds to attenuate the neurotoxicity of Cu–Aβ species, we sought out to study the possible molecular mechanisms for this beneficial effect. The Aβ oligomers were reported to interact with cell membranes in various ways, such as binding to receptors on cell membranes,[49,50] inserting into membranes,[51] or even showing cellular uptake via endocytosis.[52] The abnormal interactions between Aβ oligomers and neuron cells, which could disrupt the neuronal ion homeostasis and neuron cell membrane integrity, might be why Aβ oligomers are highly neurotoxic.[53–55] Moreover, molecules that can disrupt interactions between oligomers and cell membranes are promising candidates for drug development.[56,57] Thus, we proceeded to probe the interactions of the Aβ42 oligomers with SH-SY5Y cellular membranes, in the absence and presence of the compounds, via confocal microscopy. […] Moreover, a lower concentration of Aβ42 (5 μM) or Aβ42–Cu (5 μM) were chosen to avoid significant cell death (Fig. S9b ^†). […]
RCSB database and optimized by minimal minimization with the OPLS3 force field using the Protein Preparation Wizard program. […] The calculated poses were ranked by both the docking score and Glide e-model energy, and the structures with the best docking scores and Glide e-model energies were rendered in […]

[2] = biological target: T1, human serum albumin (HSA) (Homo sapiens, UniProt P02768); assay: Fluorescence turn-on with human serum albumin (selectivity); type: binding; conditions: compound 5 µM, HSA 1 mg/mL, Aβ42 fibrils 25 µM for comparison
T1 construct: purchased
Description: To investigate whether these amphiphilic compounds can interact with different Aβ species, we recorded the fluorescence intensity changes in the absence and presence of Aβ42 fibrils and oligomers, respectively, which were prepared as previously reported.[28] […] The enhanced fluorescence intensity and blue shift are possibly due to the restriction in a rotation of the aromatic rings and the changes of hydrophobicity at the Aβ binding sites. […] Comparing the ZY-17 series with the other series of compounds, we believe that the thiophene ring in the stilbene-like binding scaffold is essential for the selectively toward Aβ species, while the more hydrophobic tri-benzene rings might lead to unspecific binding to other proteins; such a design principle will be key for the development of second-generation compounds with increased Aβ-binding selectivity.
Figure S4. Fluorescence turn-on effects of amphiphilic compounds with HAS; [compound] = 5 µM, [Aβ42 fibrils] = […]

T1 sequence (P02768 25-609): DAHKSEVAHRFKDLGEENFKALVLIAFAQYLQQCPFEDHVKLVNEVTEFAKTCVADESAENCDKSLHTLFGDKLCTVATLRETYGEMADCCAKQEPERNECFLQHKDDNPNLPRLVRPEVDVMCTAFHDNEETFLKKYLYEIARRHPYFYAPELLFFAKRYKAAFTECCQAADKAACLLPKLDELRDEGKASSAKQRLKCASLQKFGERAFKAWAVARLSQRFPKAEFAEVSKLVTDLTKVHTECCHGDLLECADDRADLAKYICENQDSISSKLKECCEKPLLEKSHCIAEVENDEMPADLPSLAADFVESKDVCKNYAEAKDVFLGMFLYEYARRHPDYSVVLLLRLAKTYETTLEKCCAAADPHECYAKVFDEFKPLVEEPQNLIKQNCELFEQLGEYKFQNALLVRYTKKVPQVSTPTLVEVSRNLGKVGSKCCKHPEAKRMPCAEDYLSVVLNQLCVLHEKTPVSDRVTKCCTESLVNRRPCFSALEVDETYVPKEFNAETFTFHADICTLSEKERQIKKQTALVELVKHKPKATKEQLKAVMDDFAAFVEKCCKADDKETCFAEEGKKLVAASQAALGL

Compound	Aβ fibrils binding to cell membranes (in words) [1]	fluorescence turn-on in the presence of HSA (in words) [2]
CN1CCN(C)CCN(Cc2cc(/C=C/c3ccc(-c4ccc(C=O)cc4)s3)ccc2O)CC1 [ZY-15-MT]	not able to significantly decrease the numbers of the Aβ fibrils binding to cell membranes	
COc1cc(/C=C/c2ccc(-c3ccc(C=O)cc3)s2)cc(CN2CCN(C)CCN(C)CC2)c1O [ZY-15-OMe]	not able to significantly decrease the numbers of the Aβ fibrils binding to cell membranes	
COc1cc(OC)cc(-c2ccc(/C=C/c3cc(CN4CCN(C)CCN(C)CC4)c(O)c(CN4CCN(C)CCN(C)CC4)c3)cc2)c1 [ZY-17-DT]		even higher fluorescence intensity increase in the presence of HSA than for Aβ42 fibrils
COc1cc(OC)cc(-c2ccc(/C=C/c3cc(CN4CCN(C)CCN(C)CC4)c(O)c(OC)c3)cc2)c1 [ZY-17-OMe]		even higher fluorescence intensity increase in the presence of HSA than for Aβ42 fibrils
